# Literature values as cited in US5874549A, “Acid-cleavable compound” (NeoRx Corporation, priority 1993, dated 1999).
# Conditions: relative to Cpd 1 = 1
row,Compound,Relative Rate (hydrolysis of the amide group)
1,CNC(=O)/C=C\C(=O)O [Cpd 1],1
2,CNC(=O)/C=C(/C)C(=O)O [Cpd 2],31.2
3,CC/C(=C/C(=O)NC)C(=O)O [Cpd 3],32.8
4,CNC(=O)/C=C(\C(=O)O)C(C)C [Cpd 4],44.5
5,CNC(=O)/C=C(\C(=O)O)C(C)(C)C [Cpd 5],68.0
6,CCCNC(=O)/C(C)=C(/C)C(=O)O [Cpd 6],2.35 × 10^4
7,CNC(=O)C1=C(C(=O)O)CCCC1 [Cpd 7],540
8,CNC(=O)C1=C(C(=O)O)CCC1 [Cpd 8],4.2 × 10^-5
9,CNC(=O)C1=C(C(=O)O)CC1 [Cpd 9],4.2 × 10^-6
10,CNC(=O)c1ccccc1C(=O)O [Cpd 10],0.72
11,CC(C)NC(=O)/C=C\C(=O)O [Cpd 11],0.7
12,CC(C)(C)NC(=O)/C=C\C(=O)O [Cpd 12],2.6
13,O=C(O)/C=C\C(=O)Nc1ccccc1 [Cpd 13],4.5
14,CN(C)C(=O)/C=C\C(=O)O [Cpd 14],42.7
15,C=CC(=O)NC [N-methyl acrylamide],~1.4 × 10^-7
